In patent US20200245620A1 (priority 2018, published 2020):
Converted amounts (≈) assume the structure as drawn. “And” between values parts separate entries of the source, which are not always exact repeats. Identical values can stand only once. Like-named read-outs stand apart in the source and are kept apart here.

Columns and labels:
[1] = tested on: wheat scab; assay type: in vivo
[2] = tested on: leaf blight of wheat; assay: Field efficacy on wheat diseases; assay type: in vivo; settings: 40 g a.i./Mu
Experimental: (§1) The field prevention and control efficacy of the fungicidal composition preparations of embodiments 1-8 on wheat diseases was experimented. The experimental field was arranged in Jiangsu Yancheng Xinyang Farm. The wheat variety was Huaimai 33. At the initial stage of wheat blooming, a Nongjiale 16L knapsack electric sprayer was adopted to carry out application for the first time, application was carried out for the second time after five days, water consumption was 50 kg/Mu, the area of each plot was 50 square meters, each treatment was repeated for three times, and the fungicidal composition was not applied on the blank control. Meanwhile, 80 g of carbendazim wettable powder which was 50 percent was used as a control agent for treatment per mu. According to a corresponding method specified by the industrial standard of Guidelines for the Field Efficacy Trials of Fungicides issued by the Ministry of Agriculture, the occurrences of powdery mildew, rust, sheath blight and leaf blight of wheat were investigated at the stage of milky ripeness, disease indexes and prevention and control effects were calculated, and the result is shown in table 7.

[3] = tested on: powdery mildew of wheat; assay: Field efficacy on wheat diseases; assay type: in vivo; settings: 40 g a.i./Mu
Experimental: as §1

[4] = tested on: sheath blight of wheat; assay: Field efficacy on wheat diseases; assay type: in vivo; settings: 40 g a.i./Mu
Experimental: as §1

[5] = tested on: wheat scab fungi; assay type: in vivo
[6] = tested on: Fusarium asiaticum; assay: microbe, parasite or virus in culture; assay type: cell-based
[7] = tested on: Fusarium graminearum; assay: microbe, parasite or virus in culture; assay type: cell-based
[8] = tested on: rust of wheat; settings: in vivo
[9] = tested on: Tri5 gene; assay type: cell-based, fusarium asiaticum
[10] = tested on: barley rust; settings: in vivo
[11] = tested on: barley scab (fusarium head blight); assay type: in vivo
[12] = tested on: barley scab (fusarium head blight); assay type: in vivo; remark: listed apart in the source
[13] = tested on: barley powdery mildew; assay: Field efficacy on barley diseases; assay type: in vivo
Experimental: (§2) The field prevention and control efficacy of the fungicidal composition preparations of embodiments 1-8 on barley diseases was experimented, wherein different doses of single jinggangmycin agent and single ipconazole agent were designed for treatment. In 2014, application was carried out for the first time at the initial stage of barley blooming, application was carried out for the second time after five days, water consumption was 50 kg/Mu, the area of each plot was 50 square meters, each treatment was repeated for three times, and the fungicidal composition was not applied on the blank control. A conventional agent, polyketone wettable powder, was adopted as a control agent. According to a corresponding method specified by the industrial standard of Guidelines for the Field Efficacy Trials of Fungicides issued by the Ministry of Agriculture, the occurrences of barley scab, powdery mildew, rust and leaf blight were investigated at the stage of milky ripeness, disease indexes and prevention and control effects were calculated, and the result is shown in table 8. One hundred and fifty barley ears were sampled randomly every five treated points at the stage of wax ripeness, taken in for threshing and assayed according to the method of application embodiment 1, and toxin contents of the kernels were calculated.

[14] = tested on: barley leaf blight; assay: Field efficacy on barley diseases; assay type: in vivo
Experimental: as §2

[15] = tested on: Carbendazim-resistant fusarium asiaticum; assay: microbe, parasite or virus in culture; assay type: cell-based; settings: Fusarium asiaticum, read-out: DON Biosynthesis Inhibition Rate

COC(=O)Nc1nc2ccccc2[nH]1 [Carbendazim, carbendazim]
Disease Index Prevention Effect, Actual Prevention Effect ([1]; 40 g a.i./Mu): 67.5%
Disease Index Prevention Effect, Leaf Blight [2]: 48.53%
Disease Index Prevention Effect, Powdery Mildew [3]: 52.62%
Disease Index Prevention Effect, Sheath Blight [4]: 44.65%
DON Contamination Reduction Rate ([5]; 40 g a.i./Mu): 58.42%
Grain Toxin Content ([5]; 40 g a.i./Mu): 4.42 μg of toxin/g of kernels
EC50 ([6]; Fusarium asiaticum): 0.45 µg/mL (≈ 2.35 µM)
EC50 ([7]; Fusarium graminearum, F.g sensitive strains): 0.45 µg/mL (≈ 2.35 µM)
Disease Index Prevention Effect, Rust [8]: 61.24%

OCC1=C[C@H](N[C@H]2C[C@H](CO)[C@@H](O[C@@H]3O[C@H](CO)[C@@H](O)[C@H](O)[C@H]3O)[C@H](O)[C@H]2O)[C@H](O)[C@@H](O)[C@@H]1O [Jinggangmycin]
Rate of Inhibition on Relative Expression Level of Tri5 Gene [9]: 66% and 84% and 87% and 90% and 59%
Disease Index Prevention Effect, Actual Prevention Effect ([1]; 2 g a.i./Mu): 0%
Disease Index Prevention Effect, Actual Prevention Effect ([1]; jinggangmycin 4 g a.i./Mu): 8.65%
Disease Index Prevention Effect, Actual Prevention Effect ([1]; jinggangmycin 8 g a.i./Mu): 10.24%
Disease Index Prevention Effect, Actual Prevention Effect ([1]; jinggangmycin 10 g a.i./Mu): 14.31%
Disease Index Prevention Effect, Actual Prevention Effect ([1]; jinggangmycin 12 g a.i./Mu): 16.54%
Disease Index Prevention Effect, Actual Prevention Effect ([1]; jinggangmycin 16 g a.i./Mu): 18.65%
Disease Index Prevention Effect, Rust [10]: 0%
DON Contamination Reduction Rate ([5]; 2 g a.i./Mu): 16.18%
Grain Toxin Content ([5]; 2 g a.i./Mu): 8.91 μg of toxin/g of kernels
DON Contamination Reduction Rate ([5]; jinggangmycin 4 g a.i./Mu): 19.00%
Grain Toxin Content ([5]; jinggangmycin 4 g a.i./Mu): 8.61 μg of toxin/g of kernels
DON Contamination Reduction Rate ([5]; jinggangmycin 8 g a.i./Mu): 37.72%
Grain Toxin Content ([5]; jinggangmycin 8 g a.i./Mu): 6.62 μg of toxin/g of kernels
DON Contamination Reduction Rate ([5]; jinggangmycin 10 g a.i./Mu): 41.58%
Grain Toxin Content ([5]; jinggangmycin 10 g a.i./Mu): 6.21 μg of toxin/g of kernels
DON Contamination Reduction Rate ([5]; jinggangmycin 12 g a.i./Mu): 50.99%
Grain Toxin Content ([5]; jinggangmycin 12 g a.i./Mu): 5.21 μg of toxin/g of kernels
DON Contamination Reduction Rate ([5]; jinggangmycin 16 g a.i./Mu): 54.37%
Grain Toxin Content ([5]; jinggangmycin 16 g a.i./Mu): 4.85 μg of toxin/g of kernels
Average Fungal Colony Diameter [6]: 75.6 mm and 69.4 mm and 76.3 mm
inhibitory activity on the growth in vitro [6]: almost does not have inhibitory activity
synergistic effect for ipconazole in inhibiting hyphal growth in vitro [6]: does not have a synergistic effect
inhibition at 50 µg/mL ([6]; Fusarium asiaticum, read-out: Growth Inhibition Rate): 6.5 to 7.8%
inhibition at 50 µg/mL ([7]; Fusarium graminearum, read-out: Growth Inhibition Rate, sensitive strains, 50 μg/mL): 6.5 to 7.8%
synergistic effect for ipconazole in inhibiting hyphal growth in vitro ([7]; jinggangmycin 0.1-50 μg/mL with ipconazole 0.05 or 0.1 μg/mL): does not have a synergistic effect
Average Fungal Colony Diameter ([7]; sensitive strains, 0.1 μg/mL): 76.3 mm
Average Fungal Colony Diameter ([7]; sensitive strains, 1 μg/mL): 76.2 mm
Average Fungal Colony Diameter ([7]; sensitive strains, 10 μg/mL): 75.4 mm
Average Fungal Colony Diameter ([7]; sensitive strains, 50 μg/mL): 70.3 mm
Growth Inhibition Rate ([7]; sensitive strains, 50 μg/mL): 6.52%
Disease Index Prevention Effect, Fusarium head blight ([11]; jinggangmycin 5 g a.i./Mu): 4.54%
Disease Index Prevention Effect, Fusarium head blight ([11]; jinggangmycin 10 g a.i./Mu): 12.58%
Grain Toxin Content ([12]; jinggangmycin 5 g a.i./Mu): 5.28 mg of DON/Kg of kernel
Toxin Reduction Percentage ([12]; jinggangmycin 5 g a.i./Mu): 38.10%
Grain Toxin Content ([12]; jinggangmycin 10 g a.i./Mu): 4.62 mg of DON/Kg of kernel
Toxin Reduction Percentage ([12]; jinggangmycin 10 g a.i./Mu): 45.84%
Disease Index Prevention Effect, Powdery Mildew ([13]; jinggangmycin 5 g a.i./Mu): 0%
Disease Index Prevention Effect, Powdery Mildew ([13]; jinggangmycin 10 g a.i./Mu): 0%
Disease Index Prevention Effect, Leaf Blight ([14]; jinggangmycin 5 g a.i./Mu): 0%
Disease Index Prevention Effect, Leaf Blight ([14]; jinggangmycin 10 g a.i./Mu): 0%
inhibition at 1 µg/mL ([15]; 168 h): 28.6%
inhibition at 10 µg/mL ([15]; 168 h): 35.5%
inhibition at 100 µg/mL ([15]; 168 h): 45.2%
inhibition at 1000 µg/mL ([15]; 168 h): 65.5%
inhibition at 10000 µg/mL ([15]; 168 h): 75.9%
inhibition at 1 µg/mL ([15]; 336 h): 1.7%
inhibition at 10 µg/mL ([15]; 336 h): 7.87%
inhibition at 100 µg/mL ([15]; 336 h): 29.9%
inhibition at 1000 µg/mL ([15]; 336 h): 57%
inhibition at 10000 µg/mL ([15]; 336 h): 75.4%
